In patent publication US3989835A, “Method of using 6-substituted amino phenyl-2,3,5,6-tetra-hydro[2,1-b]thiazoles for controlling gastrointestinal nematodes” (American Cyanamid Company, priority 1974, dated 1976):
Where a name gives a salt, the structure may show the parent alone. Read-outs that look alike come from different tables or passages of the source.

Key:
[1] = tested on: Nematospiroides dubius; assay: Anthelmintic efficacy against N. dubius in mice, single oral dose; type: in vivo, Nematospiroides dubius (in albino female mice); settings: for inhibition in vivo at 1.25 mg/kg: single oral dose 1.25 mg./Kg.; for inhibition in vivo at 2 mg/kg: single oral dose 2.0 mg./Kg.; for inhibition in vivo at 5 mg/kg: single oral dose 5.0 mg./Kg.; for inhibition in vivo at 10 mg/kg: single oral dose 10 mg./Kg.; for inhibition in vivo at 20 mg/kg: single oral dose 20 mg./Kg.; for inhibition in vivo at 50 mg/kg: single oral dose 50 mg./Kg.; for inhibition in vivo at 100 mg/kg: single oral dose 100 mg./Kg.
Procedure: Albino female mice are each inoculated with about 20 infectious larvae of Nematospiroides dubius. This nematode is a representative of the economical important trichostrongylis worms of ruminants and other hosts, and of nematodes in general. Twenty-two days after inoculation, groups of four randomly selected mice containing adult N. dubius are given single oral doses of test compounds dissolved or suspended in 0.4 ml. of water per 20 gram mouse. At 26 or 27 days after inoculation, treated mice and in each test four randomly selected groups of untreated mice are necropsied. The number of worms in the small intestine of each mouse are determined by microscopic examination. Average worm numbers for each treated group and for the untreated controls are computed and the percent efficacy determined by the customary formula:
(Average Worms in Control - Average Worms in Treated)/(Average Worms in Control) X 100.

[2] = in vivo; settings: for Approx. LD50 /ED50: chemotherapeutic index, mouse oral, N. dubius; for LD50: mouse, in vivo, po; for Dead/Total: mice
Excerpt: Data on the acute oral toxicity to mice of various single oral doses of the above compounds and several analogs were obtained by conventional procedures, (Table IX hereinafter).

[3] = Heligmosomoides polygyrus, po, as Base, single oral dose, mice, > indicates inactive at dose shown, read-out: Approx. ED50
[4] = Heligmosomoides polygyrus, po, mouse oral, Table IX, read-out: Approx. ED50 vs. N. dubius
[5] = Heligmosomoides polygyrus, po, molar-adjusted, read-out: Percent Nematospiroides Activity
[6] = Approx. LD50, mouse oral, Table IX
[7] = LD50, mice, adjusted to molar equivalents of tetramisole free base
[8] = as Base, single oral dose, mice, > indicates inactive at dose shown, hydrochloride
[9] = as Base, single oral dose, mice, > indicates inactive at dose shown

CC(C)(C)C(=O)Nc1cccc(C2CN3CCSC3=N2)c1 (stereo not drawn) [m-NH-CO-C(CH3)2 l]
ED50 [1, 3]: 1 mg/kg
ED50 [1, 4]: 1 mg/kg
inhibition in vivo at 1.25 mg/kg [1, 5]: 60%
inhibition in vivo at 2 mg/kg [1, 5]: 69%
inhibition in vivo at 5 mg/kg [1, 5]: 90%
inhibition in vivo at 10 mg/kg [1, 5]: 100%
Approx. LD50 /ED50 ([2]; Table IX): 100
LD50 [2, 6]: 100 mg/kg
LD50 [2, 7]: ~100 mg/kg
Dead/Total ([2]; single oral dose 50 Mg./Kg.): 0/6
Dead/Total ([2]; single oral dose 100 Mg./Kg.): 2/6
Dead/Total ([2]; single oral dose 200 Mg./Kg.): 6/6

O=[N+]([O-])c1cccc(C2CN3C=CSC3=N2)c1 (racemic) [dl HClO4 NO2 * meta, reference compound]
ED50 [1, 3]: 25 mg/kg

COC(=O)Nc1cccc(C2CN3CCSC3=N2)c1 (racemic) [m-NH-CO-OCH3 dl, dl-m-(2,3,5,6-tetrahydroimidazo[2,1-b]thiazol-6-yl)carbanilic acid methyl ester, hydrochloride]
ED50 [1, 3]: 15 mg/kg
ED50 [1, 4]: 15 mg/kg
inhibition in vivo at 10 mg/kg [1, 5]: 25%
inhibition in vivo at 20 mg/kg [1, 5]: 96%
inhibition in vivo at 40 mg/kg ([1]; Heligmosomoides polygyrus, po, single oral dose 40 mg./Kg., molar-adjusted, read-out: Percent Nematospiroides Activity): 100%
Approx. LD50 /ED50 ([2]; Table IX): 10
LD50 [2, 6]: 150 mg/kg
LD50 [2, 7]: ~125 mg/kg
Dead/Total ([2]; single oral dose 50 Mg./Kg.): 0/5
Dead/Total ([2]; single oral dose 100 Mg./Kg.): 0/5
Dead/Total ([2]; single oral dose 150 Mg./Kg.): 3/5
Dead/Total ([2]; single oral dose 200 Mg./Kg.): 5/5

O=C(C=Cc1ccccc1)Nc1cccc(C2CN3CCSC3=N2)c1 (stereo not drawn) [Table XII b1827]
inhibition in vivo at 1.25 mg/kg [1, 5]: 60%
inhibition in vivo at 2 mg/kg [1, 5]: 67%
inhibition in vivo at 5 mg/kg [1, 5]: 100%
inhibition in vivo at 10 mg/kg [1, 5]: 100%
LD50 [2, 7]: ~90 mg/kg

O=[N+]([O-])c1cccc(C2CN3CCSC3=N2)c1 (racemic) [dl HCl NO2 meta, dl-6-(m-nitrophenyl)-2,3,5,6-tetrahydroimidazo[2,1-b]thiazole hydrochloride, reference compound]
ED50 [1, 3]: 15 mg/kg

Nc1ccc(Br)c(C2CN3CCSC3=N2)c1 (racemic) [R1 =H R4 =Br, dl-6-(5-amino-2-bromophenyl)-2,3,5,6-tetrahydroimidazo[2,1-b]thiazole, dihydrochloride]
ED50 ([1]; Heligmosomoides polygyrus, po, continuation of Table X (R1/R4 disubstituted), read-out: ED50): 5 mg/kg
ED50 [1, 4]: 5 mg/kg
inhibition in vivo at 4 mg/kg ([1]; Heligmosomoides polygyrus, po, single oral dose 4.0 mg./Kg., molar-adjusted, read-out: Percent Nematospiroides Activity): 43%
inhibition in vivo at 10 mg/kg [1, 5]: 100%
Approx. LD50 /ED50 ([2]; Table IX): 8
LD50 [2, 6]: 40 mg/kg
LD50 [2, 7]: ~50 mg/kg
Dead/Total ([2]; single oral dose 20 Mg./Kg.): 0/6
Dead/Total ([2]; single oral dose 40 Mg./Kg.): 2/6
Dead/Total ([2]; single oral dose 80 Mg./Kg.): 6/6

CC(=O)Nc1ccc(Br)c(C2CN3CCSC3=N2)c1 (stereo not drawn) [Table XIII b1903]
inhibition in vivo at 50 mg/kg [1, 5]: 100%
inhibition in vivo at 100 mg/kg [1, 5]: 100%

O=[N+]([O-])c1cccc(C2CN3CCSC3=N2)c1 (stereo not drawn) [l HCl NO2 meta, l-6-(m-Nitrophenyl)-2,3,5,6-tetrahydroimidazo[2,1-b]thiazole hydrochloride, reference compound]
Approx. ED50 [1, 8]: 12 Mg./Kg.

Cl.Cl.Nc1cccc(C2CN3C=CSC3=N2)c1 (stereo not drawn) [5,6-dihydro m-NH2 dl, 6-(m-Aminophenyl)-5,6-dihydroimidazo[2,1-b]thiazole dihydrochloride]
ED50 [1, 3]: 1.5 mg/kg
ED50 [1, 4]: 1.5 mg/kg
inhibition in vivo at 2 mg/kg [1, 5]: 53%
inhibition in vivo at 5 mg/kg [1, 5]: 96%
inhibition in vivo at 10 mg/kg [1, 5]: 100%
LD50 [2, 6]: 10 mg/kg
LD50 [2, 7]: ~80 mg/kg

CC(C)C(=O)Nc1cccc(C2CN3C=CSC3=N2)c1 (stereo not drawn) [5,6-dihydro HN-CO-CH(CH3)2, 3'(5,6-dihydroimidazo[2,1-b]thiazol-6-yl)isobutyranilide]
ED50 [1, 3]: 7.5 mg/kg
inhibition in vivo at 5 mg/kg [1, 5]: 32%
inhibition in vivo at 10 mg/kg [1, 5]: 68%

CC(CO)Nc1cccc(C2CN3CCSC3=N2)c1 (stereo not drawn) [HN--CH(CH3)CH2 OH]
inhibition in vivo at 5 mg/kg [1, 5]: 1%
inhibition in vivo at 10 mg/kg [1, 5]: 1%
inhibition in vivo at 50 mg/kg [1, 5]: 67%

O=C(Nc1cccc(C2CN3CCSC3=N2)c1)c1ccco1 (stereo not drawn) [Table XII b1864]
inhibition in vivo at 2 mg/kg [1, 5]: 37%
inhibition in vivo at 5 mg/kg [1, 5]: 85%
inhibition in vivo at 10 mg/kg [1, 5]: 99%
inhibition in vivo at 20 mg/kg [1, 5]: 100%
LD50 [2, 7]: 80 to 100 mg/kg

CC(C)C(=O)Nc1cccc(C2CN3CCSC3=N2)c1.Cl (stereo not drawn) [m-NH--CO--CH(CH3)2 dl, 3'-(2,3,5,6-tetrahydroimidazo[2,1-b]thiazol-6-yl)isobutyranilide hydrochloride]
ED50 [1, 3]: 3 mg/kg
ED50 [1, 4]: 3 mg/kg
inhibition in vivo at 5 mg/kg [1, 5]: 99%
inhibition in vivo at 10 mg/kg [1, 5]: 100%
inhibition in vivo at 20 mg/kg [1, 5]: 100%
Approx. LD50 /ED50 ([2]; Table IX): 20
LD50 [2, 6]: ~60 mg/kg
LD50 [2, 7]: ~75 mg/kg
Dead/Total ([2]; single oral dose 40 Mg./Kg.): 1/6
Dead/Total ([2]; single oral dose 80 Mg./Kg.): 5/6
Dead/Total ([2]; single oral dose 120 Mg./Kg.): 6/6

O=[N+]([O-])c1ccccc1C1CN2CCSC2=N1 (racemic) [dl HCl NO2 ortho, reference compound]
ED50 [1, 3]: > 100 mg/kg

O=[N+]([O-])c1cccc(C2CN3CCSC3=N2)c1 (stereo not drawn) [d HCl NO2 meta, d-6-(m-nitrophenyl)-2,3,5,6-tetrahydroimidazo[2,1-b]thiazole hydrochloride, reference compound]
Approx. ED50 [1, 8]: > 30 Mg./Kg.

COc1ccc(CNc2cccc(C3CN4CCSC4=N3)c2)cc1 (stereo not drawn) [Table XII b1718]
inhibition in vivo at 10 mg/kg [1, 5]: 40%
inhibition in vivo at 20 mg/kg [1, 5]: 100%
inhibition in vivo at 50 mg/kg [1, 5]: 100%
inhibition in vivo at 100 mg/kg [1, 5]: 100%

O=[N+]([O-])c1ccc(C2CN3CCSC3=N2)cc1 (stereo not drawn) [l HCl NO2 para, reference compound]
Approx. ED50 [1, 9]: 40 Mg./Kg.

O=CNc1ccc(C2CN3CCSC3=N2)cc1 (stereo not drawn) [d Base NH--HCO para, reference compound]
Approx. ED50 [1, 9]: > 40 Mg./Kg.
